“Also recorded” adds a separate entry of the source.
Legend:
[1] = tested on: blood-brain barrier (BBB); assay: Effect of branched chain fatty acids on BBB permeability by qualitative Evan's Blue (EB) evaluation in rats; assay type: in vivo, rat (male Sprague-Dawley)
Method: Evaluation of Effect of Branched Fatty Acids on Blood-brain Barrier Permeability
The experiments were carried out on male Sprague-Dawley rats weighing 250-320 gr. They were anesthetized with Rampun-Imalgen. The right common carotid artery was exposed.
The test compounds were dissolved in 0.1M phosphate buffered physiological saline (pH=7.4) at the following test concentrations: 1.6; 8; 20; 40; 200 and 1000 μg/ml.
The test compound was infused into the right common carotid artery at a rate of 6 ml/min. for 30 s. The control rats were infused with buffer. Evan's Blue (EB) solution at a concentration of […] (2 g Evan's Blue, 0.9 g NaCl in 100 ml water) was injected intravenously 50 minutes prior to the termination of the experiment.
In the case of 45 min experiment, five minutes prior to the infusion of the tested material, 4 ml/kg body wt dose of Evans Blue solution was injected intravenously.
At the end of the experimental time period the animals were perfused with 100 ml of saline solution through the heart and decapitated. The degree of BBB opening, in terms of extravasation of Evan's Blue albumin, was graded on the basis of visual assessment of the degree of staining of the brain ato the method of Rapoport et al. (Rapoport et al., 1980, Amer. J. Physiol. 258, 421-431), and the results are presented in Tables 1 and 2.
The results presented are qualitative with four degrees of Evan's Blue extravasation according to Rapoport et al. Minus signs represents no staining and three plus signs represent maximal staining.

[2] = Acute intravenous toxicity test in mice; assay type: in vivo; details: mouse, in vivo; intravenous administration to mice
Method: (§1) An acute intravenous toxicity test was performed to study the toxicity of the branched fatty acids in mice. The study included mortality and behavioral observations during three days. The rate of mortality is represented in the Table 5. M 3/14 caused mortality at a dose of 175 mg/kg; M3/12 at a dose of 75 mg/kg and M 3/10 at a dose of 100 mg/kg. Death was observed ten minutes after i.v. injection. In sub-lethal doses no significant behavior changes were observed.

[3] = tested on: mice; assay: Acute intravenous toxicity test in mice; assay type: in vivo; details: i.v.
Method: as §1

[4] = tested on: rodent brains; assay: Neurotoxicity by histopathology on fixed sectioned rodent brains; assay type: in vivo, rat; details: 20 or 200 μg/ml via internal carotid artery, 3 or 72 hr post infusion
Method: Potential neurotoxicity after treatment with M 3,14 was assessed by means of histopathology on fixed sectioned rodent brains.
Nine rodent brains were fixed in 10% neutral buffered formalin. These brains were obtained from rats infused with either buffer, 20 μg/ml, or 200 μg/ml M3,14 via the left internal carotid artery. The experiment was terminated and the samples collected either 3 or 72 hr. post infusion. Specimen and group identification were as follows:
control: 3 hr (2), 72 hr (1);
Upon receipt, coronal sections were prepared through the forebrain, midbrain and hindbrain. The right-left orientation was identified by placing a small cut in the cortex on the right side of the section. The sections were embedded as a single block, processed routinely in paraffin, sectioned at five microns and stained with hematoxylin and eosin. Sections were evaluated qualitatively.

[5] = tested on: bovine brain capillary endothelial cells in co-culture with astrocytes; assay: Determination of lactate dehydrogenase (LDH) in the medium of endothelial cells in coculture; assay type: cell-based
Method: In the same experiments, lactate dehydrogenase was assayed in the medium in order to check the toxicity. This cytoplasmic enzyme is not able to cross the cellular membrane except if the membrane integrity is destroyed. An increase in the release of Lactate Dehydrogenase (LDH) indicates a breakdown of the cellular membrane, leading to a cellular death. In other words, the LDH determination in the medium allows an assessment of cell viability. […]

[6] = tested on: bovine brain capillary endothelial cells in co-culture with astrocytes; assay: Reversibility of DP-BFA effect on the paracellular permeability of the BBB in vitro; assay type: cell-based; details: for permeability of the monolayer for sucrose and inulin: 1 hour incubation
Method: In regard with the previous results, 0.16 mg/ml (paracellular opening after 1 hr) and 0.32 mg/ml (paracellular and transcellular openings after 1 hr) were chosen to study the reversibility of the effect of DP-BFA.
Endothelial cells are cocultured 12 days, on the twelfth culture day DP-BFA was added to the cultures for 1 hour, and then removed by replacement of the culture medium. The cultures then were maintained for a further 24 hours without DP-BFA, and subsequently assayed for paracellular permeability.
(§2) Permeability studies were carried out on the monolayer of endothelial cells, using two paracellular tracers: inulin-^3 H and sucrose-^14C.

[7] = tested on: bovine brain capillary endothelial cells in co-culture with astrocytes; assay: Reversibility kinetic of DP-BFA effect on the paracellular permeability of the BBB in vitro; assay type: cell-based
Method: Endothelial cells are cocultured 12 days, and on the twelfth day DP-BFA was added to the cultures for one hour. The cultures were then washed to remove the test material and cultured for a further period of 3, 6 or 18 hours without DP-BFA.
as §2

[8] = 0.16 mg/ml 1 hr, then 3 hrs fresh medium
[9] = 0.16 mg/ml 1 hr, then 6 hrs fresh medium
[10] = 0.16 mg/ml 1 hr, then 18 hrs fresh medium

## CCCCCCCCCCCCCCC(CCC)C(=O)O (centres unmarked) [M 3/14, 2-propylhexadecanoic acid]
[1]; 1.6 μg/ml (5 μM/ml), 180 min
  Visual EB: -
[1]; 8 μg/ml (25 μM/ml), 180 min
  Visual EB: +
[1]; 20 μg/ml (62.5 μM/ml), 180 min
  Visual EB: +
[1]; 40 μg/ml (125 μM/ml), 45 min
  Visual EB: ++
[1]; 40 μg/ml (125 μM/ml), 180 min
  Visual EB: ++
[1]; 125 μM, 180 min, intracarotid infusion
  Visual EB: ++
[1]; 200 μg/ml (625 μM/ml), 45 min
  Visual EB: +++
[1]; 625 μM, 45 min, intracarotid infusion
  Visual EB: +++
[1]; 1000 μg/ml (3125 μM/ml), 45 min
  Visual EB: +++
[1]; Table 1 compounds
  BBB permeability enhancement, potency ranking: most potent BBB permeability enhancer
[2]
  LD50 at 72 h: 150 to 175 mg/kg
[3]; 50 mg/kg, 5 mg/ml
  Mortality: 0/3
[3]; 100 mg/kg, 5 mg/ml
  Mortality: 0/3
[3]; 150 mg/kg, 10 mg/ml
  Mortality: 0/3
[3]; 175 mg/kg, 10 mg/ml
  Mortality: 3/3
[3]; mice, three days
  dose causing mortality: 175 mg/kg
[4]; listed as M 3,14
  histopathology (neurotoxicity): no treatment related changes observed
[4]; listed as M3,14
  histopathology (neurotoxicity): No treatment related changes were observed
[5]; 0.16 mg/ml, 24 hrs incubation
  LDH release: significant increase in LDH release
  cytotoxic effect: cytotoxic effect
[5]; 1 hr incubation, paracellular study
  LDH release: no significant increase in LDH release
[5]; 1 hr incubation, transcellular study
  LDH release: No increase in release of LDH
[5]; 1 hr incubation, listed as DP-BFA
  cytotoxic effect: No cytotoxic effect; also recorded: not associated with cytotoxic effects
[5]; 24 hrs reversibility study
  cytotoxic effect: No cytotoxic effect
[5]; after 1 hr and after 24 hrs reversibility study
  LDH release: No increase in release of LDH
[5]; reversibility kinetic study
  LDH release: No increase in release of LDH
  cytotoxic effect: No cytotoxic effect
[6]; 0.16 mg/ml 1 hr, then 24 hrs without DP-BFA
  reversibility of paracellular permeability (clearance at 45 minutes): complete reversibility
[6]; 0.16 mg/ml
  permeability of the monolayer for sucrose and inulin: increase in the permeability
[6]; 0.32 mg/ml 1 hr, then 24 hrs without DP-BFA
  decrease of paracellular permeability (clearance at 45 minutes): 50%
[6]; 0.32 mg/ml
  permeability of the monolayer for sucrose and inulin: increase in the permeability
[6]; 0.32 mg/ml, 1 hr
  paracellular breakdown (opening of the tight junctions): paracellular breakdown (opening of the tight junctions)
[6]; higher concentrations
  reversibility of DP-BFA effect: Partial reversibility
[7]; [8]
  decrease in paracellular permeability for inulin (clearance at 45 minutes): 58%
  decrease in paracellular permeability for sucrose (clearance at 45 minutes): 56%
[7]; [9]
  decrease in paracellular permeability for inulin (clearance at 45 minutes): 58%
  decrease in paracellular permeability for sucrose (clearance at 45 minutes): 57%
[7]; [10]
  decrease in paracellular permeability for inulin (clearance at 45 minutes): 76%
  decrease in paracellular permeability for sucrose (clearance at 45 minutes): 72%
[7]; 0.16 mg/ml 1 hr, after 3, 6 and 18 hrs
  reversibility of DP-BFA effect: incomplete reversibility
[7]; after 3 hours, preliminary kinetic study
  paracellular transport after removal: a decrease in the paracellular transport could be observed

From patent US6319952A, “Compositions and methods for reversibly increasing permeability of biomembranes” (D-Pharm Ltd., priority 1997, dated 2001)
